Results on 3 compounds are retold here after patent publication US11744825B2, “Methods of treating hypersensitive cough or itching using ion channel inhibitory compounds” (AFASCI, Inc., priority 2018, dated 2023).

One may read the IC50 as the point on the concentration scale where inhibition reaches its midpoint.

Molecules are shown by their SMILES.

The test system of one test is T-type Ca2+ current. To be noted: Avdonin et al., 2000; cited from earlier work.
A further test addresses T1, hCav3.2 Channel (Homo sapiens, UniProt O95180).
T1 construct: expressed in transfected cells
Nature of the test: Recombinant hCav3.2 channel expressed in mammalian cells. The class given is cell-based. More on the design: hCav3.2 Channel % Use Dep. (use dependent inhibition): concentration or dose not given beside the values. The text has this:
(§1) A representative panel of AFA/EX compounds was investigated on a variety of recombinant human ion channels expressed in mammalian cells and on native ion channels in dissociated rat dorsal root ganglion (DRG) neurons. […] Thus, this panel of compounds was next investigated on their effects on itching scratching behavior in two well-established itching models in mice.

The target in a further test is hCav2.2 (Homo sapiens, UniProt Q00975). Nature of the test: Recombinant hCav2.2 channel expressed in mammalian cells. The class given is cell-based. To be noted: recombinant human channel.
Description: as §1

In a further test the target is hCav1.2 (Homo sapiens, UniProt Q13936). Nature of the test: Recombinant hCav1.2 channel expressed in mammalian cells. The class given is cell-based.
Description: as §1

The subject of a further test is hiPSC INa. Nature of the test: hiPSC INa current. The class given is cell-based, human.
Another test addresses hNav1.5 (Homo sapiens, UniProt Q14524). Nature of the test: Recombinant hNav1.5 channel expressed in mammalian cells. The class given is cell-based.
Description: as §1

The next test deals with T2, T current in rat DRG (Rattus norvegicus, UniProt Q9EQ60).
T2 construct: native ion channels in dissociated rat dorsal root ganglion (DRG) neurons; from tissue; host or cells: dissociated rat dorsal root ganglion neurons
Nature of the test: Inhibition of T current in dissociated rat DRG neurons. The class given is cell-based. To be noted: read-out: Inhibition of Currents in rat DRG: T IC50.
Description: as §1

Another test has as its system INa in rat DRG. Description: Inhibition of INa current in dissociated rat DRG neurons. The class given is cell-based. The conditions noted are these: for IC50: rat DRG neurons, read-out: Inhibition of Currents in rat DRG: INa IC50; for Na/T: ratio of INa IC50 to T-type IC50.
Description: as §1

Another test relates to IK in rat DRG. Nature of the test: Inhibition of IK current in dissociated rat DRG neurons. The conditions noted are these: for IC50: rat DRG neurons, read-out: Inhibition of Currents in rat DRG: IK IC50; for K/T: ratio of IK IC50 to T-type IC50. The class given is cell-based.
Description: as §1

Test [1] relates to chloroquine-induced itching. Nature of the test: Chloroquine-induced itching (neck model of itch) in mice. The class given is in vivo, mouse. The conditions noted are these: 30 mg/kg i.p., 30 min before pruritogen. On the procedure: (§2) Neck model of itch was employed. Mice (C57BL/6, male, 3-4 months old) were shaved at the nape of the neck 2-3 days before experiments. On the day of behavioral testing mice were individually placed in small plastic chambers (12 cm L×9.5 W×12 H) that inserted into an ordinary homecage at least 30 min for habituation and recorded baseline of behavior using a video camera and a piezoelectric floor sensor operated by a validated homecage behavioral monitory system, SmartCage, which can monitor multiple mouse scratching behaviors simultaneously. Treatment with an individual test article (10 representative AFA-compounds, each at 30 mg/kg) or vehicle (0.5% hydroxyl propyl cellulose aqueous solution containing 2% DMSO) were intraperitoneally (i.p.) injected 30 min prior to itching induction. Mice were given an intradermal injection of 50 μl of a pruritogen, chloroquine or histamine into the nape of the neck. Immediately after the injection, mice were returned to their chambers and were continually recorded by the piezoelectric floor sensor for 30 min. Human manual scoring of itching scratch behavior in real-time and confirmed by video and/or piezoelectric recordings offline. The itch behavior was quantified by counting the number of scratches in a blinded to the treatment manner. A scratch was counted when a mouse lifted its hindpaw to scratch the shaved region and returned the paw to the floor or to the mouth for licking. The piezoelectric signals with a larger and regular waveform distinguished from normal homecage activity were analyzed off-line to objectively quantifying scratch episodes and durations.

Test [2] deals with T3, hERG potassium (K+) channels (Homo sapiens, UniProt Q12809).
T3 construct: expressed in transfected cells
Description: hERG potassium channel inhibition. The class given is cell-based.
Description: as §1

Test [3] relates to histamine-induced itching. Description: Histamine-induced itching (neck model of itch) in mice. The class given is in vivo, mouse. The conditions noted are these: 30 mg/kg i.p., 30 min before pruritogen. As to the method: as §2

T1 sequence (O95180 whole entry): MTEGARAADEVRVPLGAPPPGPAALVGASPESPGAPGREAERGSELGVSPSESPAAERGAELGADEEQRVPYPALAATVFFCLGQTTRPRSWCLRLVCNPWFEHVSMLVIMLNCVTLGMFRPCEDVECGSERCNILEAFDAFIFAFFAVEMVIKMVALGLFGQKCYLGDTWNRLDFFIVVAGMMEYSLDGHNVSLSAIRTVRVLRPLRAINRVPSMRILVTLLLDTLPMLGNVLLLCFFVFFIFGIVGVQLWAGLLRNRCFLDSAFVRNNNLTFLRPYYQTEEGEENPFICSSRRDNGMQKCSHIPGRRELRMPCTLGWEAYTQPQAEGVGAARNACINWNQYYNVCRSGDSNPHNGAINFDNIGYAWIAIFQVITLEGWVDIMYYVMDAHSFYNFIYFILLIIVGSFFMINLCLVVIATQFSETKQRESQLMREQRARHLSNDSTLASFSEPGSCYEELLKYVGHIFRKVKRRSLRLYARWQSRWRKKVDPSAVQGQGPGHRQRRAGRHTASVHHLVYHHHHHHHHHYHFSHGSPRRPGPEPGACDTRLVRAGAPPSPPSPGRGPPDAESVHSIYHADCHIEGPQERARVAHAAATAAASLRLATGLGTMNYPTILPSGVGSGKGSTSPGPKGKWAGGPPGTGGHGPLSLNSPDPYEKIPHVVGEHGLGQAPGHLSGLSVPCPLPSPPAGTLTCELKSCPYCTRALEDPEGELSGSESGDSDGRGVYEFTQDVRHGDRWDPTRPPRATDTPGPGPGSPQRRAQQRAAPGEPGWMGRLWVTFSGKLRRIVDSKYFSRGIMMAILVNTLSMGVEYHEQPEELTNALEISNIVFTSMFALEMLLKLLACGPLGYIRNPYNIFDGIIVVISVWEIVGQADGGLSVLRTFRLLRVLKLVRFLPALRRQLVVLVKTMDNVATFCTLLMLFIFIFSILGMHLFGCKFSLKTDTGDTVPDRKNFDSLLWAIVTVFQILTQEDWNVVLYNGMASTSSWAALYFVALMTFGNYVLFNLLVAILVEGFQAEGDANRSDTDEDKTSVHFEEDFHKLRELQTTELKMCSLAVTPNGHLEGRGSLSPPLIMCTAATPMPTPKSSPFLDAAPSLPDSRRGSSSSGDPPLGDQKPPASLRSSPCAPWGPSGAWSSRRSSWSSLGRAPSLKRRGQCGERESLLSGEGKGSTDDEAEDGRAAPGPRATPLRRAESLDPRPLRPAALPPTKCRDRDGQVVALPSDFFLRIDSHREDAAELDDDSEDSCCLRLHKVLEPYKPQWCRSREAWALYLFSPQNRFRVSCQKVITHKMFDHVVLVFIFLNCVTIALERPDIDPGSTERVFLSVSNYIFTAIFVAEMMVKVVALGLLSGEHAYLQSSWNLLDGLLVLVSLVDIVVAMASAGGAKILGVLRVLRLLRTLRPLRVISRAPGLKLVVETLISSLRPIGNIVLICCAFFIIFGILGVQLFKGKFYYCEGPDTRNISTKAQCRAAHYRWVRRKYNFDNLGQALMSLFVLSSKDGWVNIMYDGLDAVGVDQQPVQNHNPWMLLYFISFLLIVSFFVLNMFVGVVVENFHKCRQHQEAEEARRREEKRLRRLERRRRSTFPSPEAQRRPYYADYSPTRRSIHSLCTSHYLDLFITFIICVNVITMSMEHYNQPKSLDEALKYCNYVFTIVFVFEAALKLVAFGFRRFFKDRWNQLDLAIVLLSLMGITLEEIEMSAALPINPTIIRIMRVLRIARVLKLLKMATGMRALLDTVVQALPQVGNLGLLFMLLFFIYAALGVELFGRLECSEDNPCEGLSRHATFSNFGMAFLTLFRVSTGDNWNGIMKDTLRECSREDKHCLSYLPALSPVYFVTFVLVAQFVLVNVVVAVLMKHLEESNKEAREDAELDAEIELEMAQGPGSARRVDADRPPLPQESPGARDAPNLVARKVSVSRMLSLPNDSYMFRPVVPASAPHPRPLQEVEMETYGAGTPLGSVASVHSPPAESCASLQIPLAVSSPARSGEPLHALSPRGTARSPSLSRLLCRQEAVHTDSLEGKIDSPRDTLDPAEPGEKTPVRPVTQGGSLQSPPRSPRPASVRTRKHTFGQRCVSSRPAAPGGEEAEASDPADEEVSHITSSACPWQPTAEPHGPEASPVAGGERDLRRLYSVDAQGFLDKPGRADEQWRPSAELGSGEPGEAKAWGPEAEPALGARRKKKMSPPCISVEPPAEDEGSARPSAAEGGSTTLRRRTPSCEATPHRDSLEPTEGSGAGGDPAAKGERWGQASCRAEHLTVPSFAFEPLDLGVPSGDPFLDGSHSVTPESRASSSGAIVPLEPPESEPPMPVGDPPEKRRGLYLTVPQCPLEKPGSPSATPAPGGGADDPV
hNav1.5, sequence (Q14524 whole entry): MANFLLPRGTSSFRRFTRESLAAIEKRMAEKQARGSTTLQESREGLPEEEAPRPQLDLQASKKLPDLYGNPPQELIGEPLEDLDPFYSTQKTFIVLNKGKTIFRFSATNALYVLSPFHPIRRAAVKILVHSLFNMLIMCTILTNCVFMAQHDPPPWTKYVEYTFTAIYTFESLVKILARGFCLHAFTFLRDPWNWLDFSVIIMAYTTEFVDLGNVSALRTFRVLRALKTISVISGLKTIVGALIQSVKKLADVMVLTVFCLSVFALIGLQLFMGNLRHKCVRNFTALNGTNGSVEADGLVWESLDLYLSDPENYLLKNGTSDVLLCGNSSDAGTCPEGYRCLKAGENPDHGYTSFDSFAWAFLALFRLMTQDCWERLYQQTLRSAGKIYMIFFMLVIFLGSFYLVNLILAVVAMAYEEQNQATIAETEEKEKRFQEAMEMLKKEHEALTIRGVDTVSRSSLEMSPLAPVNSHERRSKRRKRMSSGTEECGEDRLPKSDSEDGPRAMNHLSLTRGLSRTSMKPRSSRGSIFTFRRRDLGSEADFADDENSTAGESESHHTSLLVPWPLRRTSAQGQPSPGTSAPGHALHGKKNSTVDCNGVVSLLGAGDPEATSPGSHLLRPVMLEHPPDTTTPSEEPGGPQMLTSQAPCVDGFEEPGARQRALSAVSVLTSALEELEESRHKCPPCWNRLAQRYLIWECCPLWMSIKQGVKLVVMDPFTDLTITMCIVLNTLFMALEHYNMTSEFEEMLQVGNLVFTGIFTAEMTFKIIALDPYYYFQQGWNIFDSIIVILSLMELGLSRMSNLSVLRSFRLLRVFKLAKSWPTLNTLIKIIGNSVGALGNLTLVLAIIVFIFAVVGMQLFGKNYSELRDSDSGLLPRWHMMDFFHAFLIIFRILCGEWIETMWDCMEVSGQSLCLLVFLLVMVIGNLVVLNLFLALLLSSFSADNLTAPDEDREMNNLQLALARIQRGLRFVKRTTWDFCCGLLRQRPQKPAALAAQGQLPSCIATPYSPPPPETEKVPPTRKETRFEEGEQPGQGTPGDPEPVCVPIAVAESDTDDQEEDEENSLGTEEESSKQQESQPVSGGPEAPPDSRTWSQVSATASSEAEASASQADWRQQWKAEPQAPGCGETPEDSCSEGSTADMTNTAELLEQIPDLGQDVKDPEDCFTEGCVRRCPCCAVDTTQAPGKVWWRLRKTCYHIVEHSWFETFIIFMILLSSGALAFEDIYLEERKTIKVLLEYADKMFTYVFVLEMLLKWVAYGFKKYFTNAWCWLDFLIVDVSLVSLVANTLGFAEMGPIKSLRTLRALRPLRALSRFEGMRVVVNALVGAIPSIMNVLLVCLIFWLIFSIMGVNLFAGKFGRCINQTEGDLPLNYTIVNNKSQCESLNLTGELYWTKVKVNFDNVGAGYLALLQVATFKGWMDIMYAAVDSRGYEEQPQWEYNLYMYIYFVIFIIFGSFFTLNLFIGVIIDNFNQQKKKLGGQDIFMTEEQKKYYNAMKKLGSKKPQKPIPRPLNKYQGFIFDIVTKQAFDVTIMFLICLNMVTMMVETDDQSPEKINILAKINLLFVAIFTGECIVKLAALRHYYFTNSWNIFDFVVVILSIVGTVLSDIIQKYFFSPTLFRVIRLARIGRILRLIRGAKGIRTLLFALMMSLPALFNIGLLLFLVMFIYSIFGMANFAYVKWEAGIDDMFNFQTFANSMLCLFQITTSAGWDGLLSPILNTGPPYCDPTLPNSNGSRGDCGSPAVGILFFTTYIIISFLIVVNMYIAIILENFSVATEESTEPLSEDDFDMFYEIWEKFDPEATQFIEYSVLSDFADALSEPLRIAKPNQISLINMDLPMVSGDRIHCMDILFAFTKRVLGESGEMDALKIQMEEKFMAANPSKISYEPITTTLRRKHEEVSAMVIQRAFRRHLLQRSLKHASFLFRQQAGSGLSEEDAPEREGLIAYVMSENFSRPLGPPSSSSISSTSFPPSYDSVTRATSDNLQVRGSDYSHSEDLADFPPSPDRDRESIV

With `COCC(=O)O[C@]1(CCN(C)CCCc2nc3ccccc3[nH]2)CCc2cc(F)ccc2[C@@H]1C(C)C` [mibefradil], the “more potent inhibition of the T-type than of the L-type Ca2+ current or the voltage-gated Na+ current” value in the test with T-type Ca2+ current is listed as 3-10 times.
For `CC(C)(C)NC(=O)CN1CCC(CNC(=O)c2cc(F)cc(Cl)c2)CC1` [AFA-258, reference compound], the IC50 on hCav3.2 Channel is 0.195 µM; at hCav2.2, above 30 µM; on hCav1.2, above 30 µM; in the test with hiPSC INa, 21.4 µM; at hNav1.5, above 100 µM; at T current in rat DRG it was 0.2 µM. Besides, the IC50 in the test with INa in rat DRG and with IK in rat DRG was above 100 µM in each case. Further, the “hCav3.2 Channel % Use Dep. (use dependent inhibition)” value on hCav3.2 Channel is listed as 17.6%. Moreover, the Na/T in the test with INa in rat DRG is recorded as above 513. Further, the K/T in the test with IK in rat DRG was above 513. Moreover, the “inhibition of chloroquine-induced itching scratching behavior” value in test [1] was “did not produce anti-itching effects”.
For `CC(C)(C)NC(=O)CN1CCC2(CC1)C[C@H]2NC(=O)C12CC3CC(CC(C3)C1)C2` [AFA-309], the IC50 at hCav3.2 Channel is 0.141 µM; at hCav2.2, 15.6 µM; on hCav1.2, above 30 µM; on hNav1.5, 25.8 µM; with INa in rat DRG, above 30 µM; with IK in rat DRG, above 30 µM. Besides, the IC50 in test [2] was above 30 µM. The “hCav3.2 Channel % Use Dep. (use dependent inhibition)” value on hCav3.2 Channel was found to be 4.2%. Also, in the test with hiPSC INa (at 3 μM), the “hiPSC INa % at 3 μM” value was found to be 0% at. The Na/T in the test with INa in rat DRG is listed as above 212. Besides, the K/T in the test with IK in rat DRG was above 212. Further, the “inhibition of histamine-induced itching scratching behavior” value in test [3] is on record as “preferentially inhibited histamine-induced itching”.
